Test results taken from patent publication US6670339B1, “Use of sulfated oligosaccharides in lowering blood triglyceride levels” (The Australian National University, priority 1997, dated 2003).
pIC50: −log10 of the molar value. Read-outs that look alike come from different tables or passages of the source.

Experiments:
[1] = molecular target: T1, bovine milk lipoprotein lipase (Bos taurus, UniProt P11151); assay: Inhibition of binding of biotinylated heparin/heparan sulfate to immobilised lipoprotein lipase; settings: for inhibitory activity on lipoprotein lipase binding to heparin/heparan sulfate, in words: summary of Table 1
T1 construct: purified from bovine milk as previously described; from tissue; host or cells: bovine milk
T1 sequence (P11151 29-478): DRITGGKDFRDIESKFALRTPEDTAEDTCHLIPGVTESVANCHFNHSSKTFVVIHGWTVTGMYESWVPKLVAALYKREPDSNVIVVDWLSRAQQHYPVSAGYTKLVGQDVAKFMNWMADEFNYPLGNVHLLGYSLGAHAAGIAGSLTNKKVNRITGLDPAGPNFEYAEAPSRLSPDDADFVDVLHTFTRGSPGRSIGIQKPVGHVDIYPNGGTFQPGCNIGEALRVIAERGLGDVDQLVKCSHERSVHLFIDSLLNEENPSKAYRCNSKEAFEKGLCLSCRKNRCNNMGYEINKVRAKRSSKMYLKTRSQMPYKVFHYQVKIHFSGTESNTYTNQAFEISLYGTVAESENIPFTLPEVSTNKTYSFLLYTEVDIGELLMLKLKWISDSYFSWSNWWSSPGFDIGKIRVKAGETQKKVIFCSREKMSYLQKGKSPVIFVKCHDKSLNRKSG
Method: As a more rapid and direct means of measuring the ability of different sulfated oligosaccharides to release lipoprotein lipase from the endothelium, an in vitro assay for this effect was developed. The assay involved immobilising lipoprotein lipase (10 μg/ml in PBS, 15 hr, 4° C.), purified from bovine milk as previously described^12, in 96 well plastic microplates (50 μl/well). Non-specific binding sites were then blocked by the addition of 200 μl/well of PBS containing 1% (w/v) bovine serum albumin (BSA) for 2 hr at 4° C. Following three washes with 200 μl/well of PBS/0.05% Tween 20 (PBST), 50 μl/well of either biotinylated bovine lung heparin or biotinylated porcine mucosal heparan sulfate (Sigma), used at either 1 or 10 μg/ml, was added and incubated for 2 hr at 4° C. Following three washes with PBST, 50 μl/well of europeum-streptavidin (1 ng/ml in PBS/1% BSA) was added for 1 hr at 4° C., the plate again washed three times with PBST, enhancement solution (50 μl/well) added and bound europeum measured by time resolved fluorescence detection using a Delfia Research Fluorometer (Wallac, Turku, Finland). Inhibition assays measured the ability of different sulfated oligosacchandes to inhibit the binding of biotinylated heparan/heparin sulfate to the immobilised lipoprotein lipase enzyme.

[2] = system: serum triglyceride levels; assay: Serum triglyceride lowering by glycosaminoglycans and sulfated oligosaccharides in mice; type: in vivo, CBA/h female mice; settings: 50 mg/kg s.c., 2 hours after injection
Method: FIG. 3. Ability of different glycosaminoglycans and sulfated oligosaccharides to lower serum triglyceride levels in CBA mice. Compounds were injected s.c. at a dose of 50 mg/kg, blood samples taken 2 hours later and assayed for triglyceride content. Each histogram is the mean±SEM (n=3) for each treatment.
Mice (CBA/h female mice 8-10 weeks old) were injected s.c. with a range of glycosaminoglycans and sulfated oligosaccharides at a dose of 50 mg/kg and 2 hours later mice were anaesthetised, blood was collected via cardiac puncture and allowed to clot and serum triglyceride levels measured using a commercially available kit (Sigma, Triglyceride—GPO-Trinder). […] The only other compound with some activity was suramin, a sulfonated compound which has previously been used as an angiogenesis and heparanase inhibitor.

[3] = biotinylated bovine lung heparin 10 μg/ml
[4] = biotinylated bovine lung heparin 1 μg/ml

Row | Compound | IC50, inhibition of binding of Biotinylated Heparin (10 μg/ml) to lipoprotein lipase [1, 3] | inhibitory activity on lipoprotein lipase binding to heparin/heparan sulfate, in words [1] | IC50, inhibition of binding of Biotinylated Heparin (1 μg/ml) to lipoprotein lipase [1, 4] | pIC50 ([1]; biotinylated bovine lung heparin 1 μg/ml, read-out: IC50, inhibition of binding of Biotinylated Heparin (1 μg/ml) to lipoprotein lipase) | pIC50 ([1]; biotinylated bovine lung heparin 10 μg/ml, read-out: IC50, inhibition of binding of Biotinylated Heparin (10 μg/ml) to lipoprotein lipase) | effect on serum triglyceride levels, in words [2]
1 | Cellohexaose | 12 µg/mL | exhibited activity |  |  |  | 
2 | Cc1ccc(C(=O)Nc2ccc(S(=O)(=O)O)c3cc(S(=O)(=O)O)cc(S(=O)(=O)O)c23)cc1NC(=O)c1cccc(NC(=O)Nc2cccc(C(=O)Nc3cc(C(=O)Nc4ccc(S(=O)(=O)O)c5cc(S(=O)(=O)O)cc(S(=O)(=O)O)c45)ccc3C)c2)c1 [Suramin, reference compound] |  | lacked activity |  | < 4.11 | < 4.11 | some activity
3 | O=S(=O)(O)OC[C@H]1O[C@@](COS(=O)(=O)O)(O[C@H]2O[C@H](COS(=O)(=O)O)[C@@H](OS(=O)(=O)O)[C@H](OS(=O)(=O)O)[C@H]2OS(=O)(=O)O)[C@@H](OS(=O)(=O)O)[C@@H]1OS(=O)(=O)O [Sucrose octasulfate, reference compound] |  | lacked activity | >200 µg/mL |  |  | small but significant enhancement

The next lines start with results.

Row | IC50, inhibition of binding of Biotinylated Heparin (10 μg/ml) to lipoprotein lipase [1, 3] | inhibitory activity on lipoprotein lipase binding to heparin/heparan sulfate, in words [1] | IC50, inhibition of binding of Biotinylated Heparin (1 μg/ml) to lipoprotein lipase [1, 4] | pIC50 ([1]; biotinylated bovine lung heparin 1 μg/ml, read-out: IC50, inhibition of binding of Biotinylated Heparin (1 μg/ml) to lipoprotein lipase) | pIC50 ([1]; biotinylated bovine lung heparin 10 μg/ml, read-out: IC50, inhibition of binding of Biotinylated Heparin (10 μg/ml) to lipoprotein lipase) | Compound | effect on serum triglyceride levels, in words [2]
4 | 6 µg/mL | potent inhibitors | 3 µg/mL |  |  | maltohexaose sulfate [Maltohexaose SO4] | significantly lowered triglyceride levels
5 | 12 µg/mL | inhibitory | 3 µg/mL |  |  | maltoheptaose sulfate [Maltoheptaose SO4] | significantly lowered triglyceride levels
